From US9145411B2, “Substituted amino-pyrimidine derivatives” (Asana Biosciences, LLC, priority 2012, dated 2015)

Tests used:
[1] = target: T1, PI3Kα (wild-type) (Homo sapiens, UniProt P42336); assay: PI3 Kinase TR-FRET assay, PI3Kα (wild-type); assay type: biochemical; conditions: wild-type P110/P85α, 10 μM ATP
T1 construct: made in house; host or cells: SF9 insect cells
Summary of the method: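 Sf9-expressed, Ni-purified p110/p85α (5 ng) with PIP2 was preincubated with compound for 60 min at room temperature in buffer with 40 mM MgCl2 and 5 mM DTT. The reaction ran 30 min at room temperature with 10 μM PIP2 and 10 μM ATP. The TR-FRET 665/615 nm ratio was used to derive IC50 from dose-response curves.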

[2] = target: T2, mTOR kinase (Homo sapiens, UniProt P42345); assay: mTOR kinase TR-FRET assay; assay type: biochemical; conditions: 20 μM ATP
T2 construct: purchased Millipore, USA
T2 sequence (P42345 1362-2549 limits assumed): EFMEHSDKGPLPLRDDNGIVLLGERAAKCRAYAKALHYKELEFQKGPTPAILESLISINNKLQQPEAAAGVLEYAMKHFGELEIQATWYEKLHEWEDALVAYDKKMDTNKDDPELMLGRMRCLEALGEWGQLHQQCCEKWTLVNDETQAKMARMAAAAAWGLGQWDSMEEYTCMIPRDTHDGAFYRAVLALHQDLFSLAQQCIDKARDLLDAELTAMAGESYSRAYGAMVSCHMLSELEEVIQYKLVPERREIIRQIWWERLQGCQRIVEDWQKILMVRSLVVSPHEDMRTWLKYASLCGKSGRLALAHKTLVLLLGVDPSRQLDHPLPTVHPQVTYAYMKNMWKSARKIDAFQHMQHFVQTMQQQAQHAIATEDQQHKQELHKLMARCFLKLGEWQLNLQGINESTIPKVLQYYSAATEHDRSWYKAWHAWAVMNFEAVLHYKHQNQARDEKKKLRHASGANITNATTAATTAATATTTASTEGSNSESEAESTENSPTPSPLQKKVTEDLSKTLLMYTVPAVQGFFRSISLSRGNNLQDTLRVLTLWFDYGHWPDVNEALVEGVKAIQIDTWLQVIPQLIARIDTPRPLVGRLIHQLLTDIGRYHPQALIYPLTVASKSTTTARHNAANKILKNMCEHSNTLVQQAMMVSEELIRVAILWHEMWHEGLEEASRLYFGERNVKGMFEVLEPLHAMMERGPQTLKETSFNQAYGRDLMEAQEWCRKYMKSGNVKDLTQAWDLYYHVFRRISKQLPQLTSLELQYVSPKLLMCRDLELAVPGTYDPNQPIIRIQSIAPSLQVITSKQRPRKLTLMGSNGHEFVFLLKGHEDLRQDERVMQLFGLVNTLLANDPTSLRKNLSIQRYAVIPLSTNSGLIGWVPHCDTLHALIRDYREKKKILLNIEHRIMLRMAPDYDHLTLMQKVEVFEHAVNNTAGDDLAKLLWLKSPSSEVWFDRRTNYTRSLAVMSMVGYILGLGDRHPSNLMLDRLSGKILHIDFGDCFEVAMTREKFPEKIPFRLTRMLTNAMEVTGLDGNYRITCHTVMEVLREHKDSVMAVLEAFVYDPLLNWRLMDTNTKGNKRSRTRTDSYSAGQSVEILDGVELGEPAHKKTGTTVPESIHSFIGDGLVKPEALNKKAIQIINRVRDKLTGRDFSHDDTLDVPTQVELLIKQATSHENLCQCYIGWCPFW
Summary of the method: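 Test compounds were pre-incubated 60 min with mTOR (5 ng), then ULight-p70 S6K (Thr389) peptide (50 nM) and ATP (20 μM) were added in HEPES 50 mM pH 7.5, EGTA, MnCl2 3 mM. After 60 min at room temperature, EDTA stop and Eu-anti-phospho antibody TR-FRET (665/615 nm) gave IC50 from sigmoidal variable-slope fits.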

[3] = test system: pAkt(T308); assay: In-cell Western assay, pAkt(T308), PC3 cells; assay type: cell-based; conditions: Homo sapiens, PC-3, 2 hours incubation
Method: (§1) Cells from human prostate cancer cell line PC3 (American Type Culture Collection (ATCC), Manassas, Va. 20108 USA) were seeded at an optimal density of 22,000 cell/well in 96-well plates containing Ham's F12K medium (90 μL) and incubated overnight. The compound dilutions were carried out in 100% DMSO followed by a dilution in the medium. Test compounds were added in serial dilutions to the wells and incubated for 2 hours. The cells were washed and fixed with 4% paraformaldehyde. After incubation at room temperature for 1 hour in the dark, blocking was done for 2 hours at room temperature. Primary antibodies for pAkt(S473) ([…] phosphorylated at serine 473), pAkt(T308) (Akt phosphorylated at threonine 308) and for pS6RP (S235/236) (phosphorylated at serine 235/236) (commercially available from Cell Signaling Technology®, whose protocol was followed for the in-cell western assay, were diluted to the required concentration and added to the corresponding wells followed by overnight incubation at 4° C. Eu-labeled rabbit (PE) (Perkin-Elmer USA catalog #AD0106) secondary antibody was added and incubated for 2 hours at room temperature. Delfia® enhancement solution (cat #1244-105, Perkin Elmer USA) was subsequently added to the plate before taking the reading at 615 nm with excitation wavelength of 340 nm, after which 0.5 μg/mL of Hoechst® 33258 dye (Catalog #86140-5, Sigma) was added to the plate and fluorescence emission was read at 460 nm with 355 nm excitation, to evaluate the correction factor. IC50 values were calculated using a sigmoidal dose-response curve fit in GraphPad Prism® v5 software.

[4] = test system: pAkt(S473); assay: In-cell Western assay, pAkt(S473), PC3 cells; assay type: cell-based; conditions: Homo sapiens, PC-3, 2 hours incubation
Method: as §1

[5] = test system: PC3 cells; assay: XTT assay for cell viability, PC3 cells; assay type: cell-based; conditions: Homo sapiens, PC-3; PC3 cell proliferation, 96 hours
Summary of the method: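 Log-phase PC3 cells (1000/well) were seeded for 24 h, then exposed to serially diluted compounds (DMSO dilutions) for 96 h. Viability was measured by XTT dye conversion at 37 °C, with absorbance read at 465 nm. EC50 was obtained from a sigmoidal dose-response fit.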

[6] = target: PI3 kinase isoform β (Homo sapiens, UniProt P42338); assay: PI3 Kinase TR-FRET assay, isoform β; assay type: biochemical; conditions: read-out: inhibition of PI3 kinase isoform β, IC50
Method: (§2) The ability of compounds of the invention to inhibit PI3K activity was determined in a homogeneous TR-FRET assay using a PI3K assay kit (Millipore, USA; cat #33-016) according to manufacturer's instructions. PI3-Kinases (isoforms α, β, γ and δ) catalyze the phosphorylation of phosphatidylinositol, PIP2 to PIP3 in the presence of ATP and Mg^2+. The PIP3 product is detected by displacement of biotin-PIP3 from an energy transfer complex consisting of Europium labeled anti-GST monoclonal antibody, a GST-tagged PH domain, biotinylated PIP3 and Streptavidin-APC. Excitation of Europium in the complex results in an energy transfer to the APC and a fluorescence emission at 665 nm. The PIP3 product displaces biotin-PIP3 from the complex resulting in a loss of energy transfer and thus a decrease in signal.
To test for the ability of compounds to inhibit the activity of PI3Kα (wild-type), exemplary compounds of formula (I) were dissolved in DMSO and directly distributed into 384-well plates at a volume of 0.5 μL. […] Fluorescence was measured at 615 and 665 nm upon excitation at 340 nm in a Victor™ V5 fluorometer (Perkin Elmer, USA). The fluorescence emission ratio at 665 to 615 nm, proportional to the kinase activity, was plotted against the compound concentration to generate dose-response curves and IC50 values were determined using GraphPad Prism® 5 software. […]

[7] = target: PI3 kinase isoform γ (Homo sapiens, UniProt P48736); assay: PI3 Kinase TR-FRET assay, isoform γ; assay type: biochemical; conditions: read-out: inhibition of PI3 kinase isoform γ, IC50
Chain of PI3 kinase isoform γ (P48736 whole entry, canonical isoform): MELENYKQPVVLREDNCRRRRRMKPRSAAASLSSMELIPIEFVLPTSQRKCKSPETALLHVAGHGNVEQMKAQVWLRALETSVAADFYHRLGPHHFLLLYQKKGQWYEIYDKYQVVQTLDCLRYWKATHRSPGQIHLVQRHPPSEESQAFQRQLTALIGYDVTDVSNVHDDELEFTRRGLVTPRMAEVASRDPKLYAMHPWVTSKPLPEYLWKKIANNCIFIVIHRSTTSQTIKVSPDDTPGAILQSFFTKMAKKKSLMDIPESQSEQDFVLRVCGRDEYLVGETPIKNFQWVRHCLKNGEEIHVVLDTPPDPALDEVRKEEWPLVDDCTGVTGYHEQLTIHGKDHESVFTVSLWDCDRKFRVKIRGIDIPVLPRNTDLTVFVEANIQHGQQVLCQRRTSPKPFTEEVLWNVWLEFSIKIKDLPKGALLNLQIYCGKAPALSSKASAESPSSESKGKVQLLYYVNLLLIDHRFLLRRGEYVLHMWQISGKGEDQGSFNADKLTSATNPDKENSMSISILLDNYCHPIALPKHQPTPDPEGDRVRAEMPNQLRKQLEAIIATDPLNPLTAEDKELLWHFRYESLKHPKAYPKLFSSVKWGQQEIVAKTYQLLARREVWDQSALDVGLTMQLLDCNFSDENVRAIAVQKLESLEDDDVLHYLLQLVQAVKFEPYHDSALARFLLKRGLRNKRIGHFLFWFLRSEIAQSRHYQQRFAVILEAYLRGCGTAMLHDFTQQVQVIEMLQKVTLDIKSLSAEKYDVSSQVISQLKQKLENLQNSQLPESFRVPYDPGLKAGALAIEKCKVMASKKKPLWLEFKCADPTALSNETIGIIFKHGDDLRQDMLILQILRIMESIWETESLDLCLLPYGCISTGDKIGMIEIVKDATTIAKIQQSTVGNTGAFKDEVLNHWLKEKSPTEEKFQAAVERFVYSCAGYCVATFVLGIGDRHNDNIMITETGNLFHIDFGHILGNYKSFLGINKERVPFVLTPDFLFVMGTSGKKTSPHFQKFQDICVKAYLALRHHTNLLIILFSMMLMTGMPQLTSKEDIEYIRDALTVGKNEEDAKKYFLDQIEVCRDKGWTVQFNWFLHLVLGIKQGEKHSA
Method: as §2
(§3) To test for the ability of compounds to inhibit the activity of PI3Kα (wild-type), exemplary compounds of formula (I) were dissolved in DMSO and directly distributed into 384-well plates at a volume of 0.5 μL. 14.5 μL of P110/P85α/PIP2 mixture in buffer (obtained from the Millipore kit) containing MgCl2 (40 mM) and DTT (5 mM) was added to compound wells and incubated for 60 minutes at room temperature. P110/P85α was expressed in SF9 insect cells and purified nickel column extraction. Five ng of wild-type P110/P85α was used in the assay. The kinase reaction was started by the addition of ATP. The assay concentrations of both PIP2 and ATP were 10 μM. The reaction mixture was incubated for 30 minutes at room temperature and was terminated by the addition of stop mix and detection mix. Fluorescence was measured at 615 and 665 nm upon excitation at 340 nm in a Victor™ V5 fluorometer (Perkin Elmer, USA). The fluorescence emission ratio at 665 to 615 nm, proportional to the kinase activity, was plotted against the compound concentration to generate dose-response curves and IC50 values were determined using GraphPad Prism® 5 software.
(§4) The activity of PI3 kinase isoforms β, γ and δ were assayed in a similar manner to the assay protocol described above for PI3Kα, by substituting the appropriate p110/p85 isoform for the p110α/p85α. Compounds of formula (I) caused inhibition of PI3 kinase isoforms β, γ and δ as determined by these assays. For example, the compounds of Examples 3 and 21 each caused inhibition of PI3 kinase isoform β with IC50 values<500 nM. The compounds of Examples 3, 7, 21, 47, 48 and 49 each caused inhibition of PI3 kinase isoform γ with IC50 values<500 nM. The compounds of Example 3, 7, 47, 48, and 49 caused inhibition of PI3 kinase isoform δ with IC50 values<1 μM.

[8] = target: PI3Kα mutation H1047R (Homo sapiens, UniProt P42336, H1047R); assay: PI3 Kinase TR-FRET assay, PI3Kα mutation H1047R; assay type: biochemical; conditions: read-out: inhibition of PI3Kα mutation H1047R, IC50
Chain of PI3Kα mutation H1047R (P42336 whole entry H1047R): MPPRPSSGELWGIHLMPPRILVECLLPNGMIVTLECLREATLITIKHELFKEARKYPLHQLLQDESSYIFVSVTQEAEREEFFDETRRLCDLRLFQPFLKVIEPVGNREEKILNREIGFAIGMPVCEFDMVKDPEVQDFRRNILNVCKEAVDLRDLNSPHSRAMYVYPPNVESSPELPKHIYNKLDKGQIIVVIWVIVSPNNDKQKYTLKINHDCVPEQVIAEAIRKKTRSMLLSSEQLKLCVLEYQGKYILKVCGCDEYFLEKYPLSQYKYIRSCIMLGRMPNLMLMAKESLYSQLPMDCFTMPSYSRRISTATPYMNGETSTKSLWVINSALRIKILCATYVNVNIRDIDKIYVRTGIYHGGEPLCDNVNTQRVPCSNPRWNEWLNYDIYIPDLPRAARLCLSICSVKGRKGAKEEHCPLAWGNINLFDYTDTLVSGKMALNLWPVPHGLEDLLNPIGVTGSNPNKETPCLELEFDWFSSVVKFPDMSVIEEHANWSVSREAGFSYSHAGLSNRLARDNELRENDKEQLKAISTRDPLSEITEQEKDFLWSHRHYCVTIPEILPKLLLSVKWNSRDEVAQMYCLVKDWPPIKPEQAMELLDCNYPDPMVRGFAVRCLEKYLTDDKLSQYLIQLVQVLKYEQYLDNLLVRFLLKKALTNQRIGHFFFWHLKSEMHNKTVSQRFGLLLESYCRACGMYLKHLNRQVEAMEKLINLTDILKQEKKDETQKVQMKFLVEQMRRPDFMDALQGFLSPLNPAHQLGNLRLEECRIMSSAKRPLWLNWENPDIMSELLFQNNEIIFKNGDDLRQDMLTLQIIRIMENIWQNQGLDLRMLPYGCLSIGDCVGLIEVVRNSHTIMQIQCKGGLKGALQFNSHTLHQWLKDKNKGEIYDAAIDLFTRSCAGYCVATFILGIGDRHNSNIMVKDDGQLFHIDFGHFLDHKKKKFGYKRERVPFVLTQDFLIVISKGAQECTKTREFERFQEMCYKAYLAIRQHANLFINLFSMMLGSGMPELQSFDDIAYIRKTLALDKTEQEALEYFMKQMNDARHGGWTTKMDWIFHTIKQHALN
Chain of PI3Kα mutation H1047R (P27986 whole entry partner): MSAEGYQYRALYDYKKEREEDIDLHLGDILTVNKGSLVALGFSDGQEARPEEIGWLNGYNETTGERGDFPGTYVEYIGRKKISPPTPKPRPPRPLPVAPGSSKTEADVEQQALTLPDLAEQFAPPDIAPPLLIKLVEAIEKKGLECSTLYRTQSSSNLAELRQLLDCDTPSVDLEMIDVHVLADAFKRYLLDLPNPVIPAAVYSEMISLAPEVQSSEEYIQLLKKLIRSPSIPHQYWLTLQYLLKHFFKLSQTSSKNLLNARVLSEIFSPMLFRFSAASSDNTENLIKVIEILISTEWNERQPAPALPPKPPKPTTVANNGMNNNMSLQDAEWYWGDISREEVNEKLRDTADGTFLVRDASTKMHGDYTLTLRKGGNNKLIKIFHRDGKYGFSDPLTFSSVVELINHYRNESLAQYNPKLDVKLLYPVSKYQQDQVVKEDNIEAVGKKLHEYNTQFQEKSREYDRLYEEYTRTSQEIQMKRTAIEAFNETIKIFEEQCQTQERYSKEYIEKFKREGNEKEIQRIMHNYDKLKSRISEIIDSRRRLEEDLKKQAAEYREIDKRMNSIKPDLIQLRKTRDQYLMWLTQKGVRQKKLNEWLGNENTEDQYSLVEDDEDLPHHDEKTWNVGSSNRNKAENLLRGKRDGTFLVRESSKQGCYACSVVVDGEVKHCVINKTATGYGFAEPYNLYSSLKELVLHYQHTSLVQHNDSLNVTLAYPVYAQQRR
Method: as §2, §3
(§5) The activity of PI3Kα mutations H1047R and E545K were assayed in a similar manner to the assay protocol described above for PI3Kα (wild type). The compounds of formula (I) caused inhibition of PI3Kα mutations H1047R (a mutation associated with breast and gastric cancers) and E545K (a mutation associated with colorectal tumors, glioblastomas, gastric cancers, breast cancers, and lung cancers). For example, each of the compounds of Example 3, 7, 21, 47, 48 and 49 caused inhibition of each of the PI3Kα mutations H1047R and E545K with IC50 values<50 nM.

[9] = target: PI3Kα mutation E545K (Homo sapiens, UniProt P42336, E545K); assay: PI3 Kinase TR-FRET assay, PI3Kα mutation E545K; assay type: biochemical; conditions: read-out: inhibition of PI3Kα mutation E545K, IC50
Chain of PI3Kα mutation E545K (P42336 whole entry E545K): as the sequence (P42336 whole entry H1047R) above, with E545K, R1047H counted along it
Chain of PI3Kα mutation E545K (P27986 whole entry partner): as the sequence (P27986 whole entry partner) above
Method: as §2, §3, §5

[10] = test system: pS6RP (S235/236); assay: In-cell Western assay, pS6RP (S235/236), PC3 cells; assay type: cell-based; conditions: Homo sapiens, PC-3, 2 hours incubation
Method: as §1

[11] = target: PI3 kinase isoform δ (Homo sapiens, UniProt O00329); assay: PI3 Kinase TR-FRET assay, isoform δ; assay type: biochemical; conditions: read-out: inhibition of PI3 kinase isoform δ, IC50
Method: as §2, §3, §4

[12] = test system: U87MG tumor cells; assay: In vivo efficacy study (tumor growth suppression), U87MG xenograft; conditions: U87MG xenograft mice, after 12 to 14 days of dosing, 50 mg/kg qd po

T1 sequence (P42336 whole entry, species assumed): as the sequence (P42336 whole entry H1047R) above, with R1047H counted along it
T1 sequence (P27986 whole entry partner, species assumed): as the sequence (P27986 whole entry partner) above

Compound	IC50 [1]	IC50 [2]	IC50 [3]	IC50 [4]	IC50 [5]	IC50 [6]	IC50 [7]	IC50 [8]	IC50 [9]	IC50 [10]	IC50 [11]	tumor growth inhibition relative to vehicle control group [12]
CS(=O)(=O)Nc1cccc(-c2cnc3c(N4CCOCC4)nc(-c4cnc(N)nc4)nc3c2)c1 [Example 21, N-(3-(2-(2-amino-pyrimidin-5-yl)-4-morpholinopyrido[3,2-d]-pyrimidin-7-yl)phenyl)-methanesulfonamide]	< 50 nM	< 50 nM	100 to 500 nM	100 to 500 nM	< 100 nM	< 500 nM	< 500 nM	< 50 nM	< 50 nM	–	–	–
Cn1cc(-c2cnc3c(N4CCOCC4)nc(-c4cnc(N)nc4)nc3c2)cn1 [Example 22, 5-(7-(1-methyl-1H-pyrazol-4-yl)-4-morpholinopyrido[3,2-d]-pyrimidin-2-yl)pyrimidin-2-amine]	< 50 nM	< 50 nM	100 to 500 nM	501 to 5000 nM	< 100 nM	–	–	–	–	100 to 500 nM	–	–
Nc1ncc(-c2nc(N3CCOCC3)c3ncc(-c4cccnc4F)cc3n2)cn1 [Example 24, 5-(7-(2-fluoropyridin-3-yl)-4-morpholino-pyrido[3,2-d]pyrimidin-2-yl)pyrimidin-2-amine]	< 50 nM	50 to 200 nM	100 to 500 nM	501 to 5000 nM	100 to 500 nM	–	–	–	–	100 to 500 nM	–	–
C[C@H](O)C(=O)Nc1cccc(-c2cnc3c(N4CCOCC4)nc(-c4cnc(N)nc4)nc3c2)c1 [Example 47, (S)-N-(3-(2-(2-amino-pyrimidin-5-yl)-4-morpholinopyrido[3,2-d]pyrimidin-7-yl)phenyl)-2-hydroxypropanamide]	< 50 nM	< 50 nM	< 100 nM	–	100 to 500 nM	–	< 500 nM	< 50 nM	< 50 nM	–	< 1000 nM	–
CC(C)(O)C(=O)Nc1cccc(-c2cnc3c(N4CCOCC4)nc(-c4cnc(N)nc4)nc3c2)c1 [Example 48, N-(3-(2-(2-amino-pyrimidin-5-yl)-4-morpholinopyrido[3,2-d]pyrimidin-7-yl)phenyl)-2-hydroxy-2-methylpropanamide]	< 50 nM	< 50 nM	100 to 500 nM	–	100 to 500 nM	–	< 500 nM	< 50 nM	< 50 nM	–	< 1000 nM	–
CC(C)(C#N)C(=O)Nc1cccc(-c2cnc3c(N4CCOCC4)nc(-c4cnc(N)nc4)nc3c2)c1 [Example 49, N-(3-(2-(2-amino-pyrimidin-5-yl)-4-morpholinopyrido[3,2-d]pyrimidin-7-yl)phenyl)-2-cyano-2-methylpropanamide]	< 50 nM	< 50 nM	100 to 500 nM	< 100 nM	< 100 nM	–	< 500 nM	< 50 nM	< 50 nM	< 100 nM	< 1000 nM	–
CC(=O)Nc1cccc(-c2cnc3c(N4CCOCC4)nc(-c4cnc(N)nc4)nc3c2)c1F [Example 52, N-(3-(2-(2-amino-pyrimidin-5-yl)-4-morpholinopyrido[3,2-d]pyrimidin-7-yl)-2-fluorophenyl)acetamide]	< 50 nM	< 50 nM	< 100 nM	< 100 nM	< 100 nM	–	–	–	–	< 100 nM	–	–
Cc1ccc(C(=O)Nc2cccc(-c3cnc4c(N5CCOCC5)nc(-c5cnc(N)nc5)nc4c3)c2)o1 [Example 59, N-(3-(2-(2-amino-pyrimidin-5-yl)-4-morpholinopyrido[3,2-d]pyrimidin-7-yl)phenyl)-5-methylfuran-2-carboxamide]	< 50 nM	< 50 nM	100 to 500 nM	< 100 nM	100 to 500 nM	–	–	–	–	< 100 nM	–	–
CC(=O)Nc1cc(-c2cnc3c(N4CCOCC4)nc(-c4cnc(N)nc4)nc3c2)ccc1F [Example 119, N-(5-(2-(2-amino-pyrimidin-5-yl)-4-morpholinopyrido[3,2-d]-pyrimidin-7-yl)-2-fluorophenyl)acetamide]	< 50 nM	< 50 nM	< 100 nM	100 to 500 nM	< 100 nM	–	–	–	–	< 100 nM	–	–
CC(=O)OC(C)OC(=O)N(C(C)=O)c1cccc(-c2cnc3c(N4CCOCC4)nc(-c4cnc(N)nc4)nc3c2)c1 (stereo not drawn) [Example 120, 1-((acetyl(3-(2-(2-amino-pyrimidin-5-yl)-4-morpholinopyrido[3,2-d]-pyrimidin-7-yl)-phenyl)carbamoyl)oxy) ethyl acetate]	–	–	–	–	–	–	–	–	–	–	–	more than 70%
